Measurements reported in article PMC3901665, “Characterization of Glycolytic Enzymes - rAldolase and rEnolase of Leishmania donovani, Identified as Th1 Stimulatory Proteins, for Their Immunogenicity and Immunoprophylactic Efficacies against Experimental Visceral Leishmaniasis” (PLoS ONE, 2014).

Columns and labels:
Format in all cases: biochemical, Leishmania donovani
[1] = test system: T1, rLdEno (L. donovani enolase); experiment: spectrophotometric PEP formation at […] nm, Michaelis-Menten; conditions: 20 mM Tris-HCl pH 7.5, 2 mM MgSO4, 75 mM KCl, 25°C; 0-10 mM 2PGA
T1 construct: gene ENO; full-length ORF (PCR product 1290 bp), N-terminal 6xHis, pET-28a, E. coli C41(DE3), Ni-NTA

[2] = test system: T1, rLdEno (L. donovani enolase); experiment: spectrophotometric at […] nm, Michaelis-Menten; conditions: 20 mM Tris-HCl pH 7.5, 2 mM MgSO4, 75 mM KCl, 25°C; 0-7.5 mM PEP; reverse reaction
[3] = test system: T2, rLdAld (L. donovani aldolase); experiment: hydrazine assay at […] nm, Michaelis-Menten; conditions: hydrazine sulfate as detection reagent; 0.1-7 mM substrate; pH and temperature not given
T2 construct: gene ALD; full-length ORF (PCR product 1125 bp), 6xHis tag, pET-28a, E. coli, purified on Ni-NTA

`O=C(O)[C@@H](CO)OP(=O)(O)O` [2-phosphoglycerate] showed a Km [1] of 1540 µM.

Compound `C=C(OP(=O)(O)O)C(=O)O` [Phosphoenol pyruvate] has a Km [2] of 3370 µM.

Work on `O=P(O)(O)OC[C@H]1OC(O)(COP(=O)(O)O)[C@@H](O)[C@@H]1O` (stereo partly drawn) [D-Fru-1,6-P2] yielded a Km [3] of 2060 µM.
